Measurements taken from patent US20040023362A1, “Degradation of polycyclic aromatic hydrocarbons by microorganisms” (priority 2000, published 2004).
“Also recorded” adds a separate entry of the source.

Experiments:
strain VUN 10,010 = test: Agar (well) diffusion toxicity test of surfactants; format: cell-based, Stenotrophomonas maltophilia
Method: The agar diffusion method was used to determine the effects of surfactants on growth by observing zones of inhibition on peptone-glucose agar (Cserhali et al, 1991). The medium contained per litre: 5 g peptone, 5 g glucose, 0.5 g NaCl, 3 g beef extract, 20 g agar; the pH was adjusted to 7.0 and sterilized by autoclaving for 15 min at 121° C. Bacterial cultures were mixed with the molten medium (25 ml) to obtain an inoculum size of approximately 10^8 cells ml^−1, and this was poured into a Petri dish. Once the cell-medium mixture had solidified, 7 mm diameter holes were made, and 150 μl of aqueous surfactant solutions was added (0.1-10.0 g l^−1). Growth inhibition zones were observed after 48-72 h at 30° C.

[1] = tested on: Bacterial consortium VUN 10,009; test: Degradation of high molecular weight PAHs by axenic cultures; format: cell-based
Method: (§1) PAH concentrations in the DCM extracts were measured on a Varian Star 3400 gas chromatograph, equipped with a flame ionization detector, using a BPX-5 capillary column (25 m×0.22 mm). The nitrogen carrier flow rate was 0.8 ml min^−1 with a pressure of 20 psi under split conditions (95:1). The oven temperature was programmed at 200° C. for 1 min, followed by a linear increase of 10° C. min^−1 to 320° C.; this temperature was held for 15 min. Injector and detector temperatures were maintained at 300° C. The peak areas of both internal standard and PAH were used to calculate peak area ratios. Ratios obtained for each sample, as well as controls, were compared to those of PAH standards.
(§2) PAH degradation experiments using axenic bacterial and fungal cultures, and fungal-bacterial co-culture, were performed in 30 ml reaction vials containing 10 ml of medium. Before inoculation, 0.1 ml of PAH stock solution (either single PAH or mixed PAH stock as described above) was introduced into the medium. This medium was then inoculated with microorganisms to produce either axenic cultures or co-cultures. Axenic cultures were inoculated with either bacteria (1 ml) to provide an initial cell population of approximately 10^4 cells ml^−1, or with mycelial pellets (0.25 g wet weight) in 10 ml of BSM. For the co-culture experiments, BSM (10 ml) contained bacteria (10^4 cells ml^−1) and 0.25 g wet weight of mycelial pellets. Experiments to investigate of co-metabolic PAH degradation by P. janthinellum were conducted with the PAH in BSM supplemented with glucose (1% final concentration) or MYPD medium. […] Medium (10 ml) was inoculated with fungal or bacterial culture using the same inoculum size as described above. All cultures were aseptically flushed with filtered (0.22 μm) air (0.2 litres min^−1) for 5 seconds on the day of inoculation and every 7 days thereafter. Abiotic controls were sterile medium containing only PAH(s). Killed-cell controls were the PAH-containing medium inoculated with a killed microbial population. The experimental cultures were conducted in triplicate, and all controls were run in duplicate. All cultures were incubated in the dark at 30° C./175 rpm. At designated time intervals the entire culture (10 ml) was sacrificed for the PAH-extraction procedure and biomass determinations.

VUN 10,010 = test: as above; format: cell-based, Stenotrophomonas maltophilia
Method: as §1, §2

[2] = tested on: P. janthinellum VUO 10,201; test: as above; format: cell-based, Penicillium janthinellum
Method: as §1, §2

[3] = PAH solubilization by surfactants (apparent solubility, MSR, Km)
Method: PAHs (approximately 1 g l^−1) were added to a 10 ml solution of BSM plus surfactant in a 30 ml glass reaction vial, which was sealed with an aluminium cap fitted with a septum. Surfactant concentrations corresponded to levels above, below, and at the CMC, and replicates were set up to allow sampling in duplicate at different time intervals up to 72 h. Incubation was performed at 30° C. and 175 rpm. The entire vial contents was collected by syringe and expressed through a preconditioned membrane filter (0.22 μm, Sartorius AG, Germany) to remove solid-phase crystalline PAH while allowing solubilized PAH in the aqueous phase and micellar pseudophase to pass into sterile vials. The filter was preconditioned by purging the filter with a few mls of sample solution to allow sorption saturation of the internal surfaces of the syringe, filter and needle. The filtrates were extracted with dichloromethane (DCM), and the concentration of solubilized PAH was determined by GC-FID as described below.
The effectiveness of a particular surfactant in solubilizing a given PAH can be assessed by determining the molar solubilization ratio (MSR) and micelle/water partition coefficient (Km). In our study, the concentrations of added PAHs were well in excess of aqueous saturation concentrations; therefore the MSR value of each compound can be obtained from the slope of the curve generated from a plot of PAH concentration versus surfactant concentration for surfactant concentrations above CMC (Edwards et al, 1991).
Km values can be determined from the measured MSR values according to the following equation (Edwards et al, 1991): [formula]
^SPAH, CMC is the apparent solubility of the PAH (mol l^−1) at surfactant CMC. VW is the molar volume of water at 30° C. ie. 0.018015 l mol^−1(Rogers and Mayhew, 1981).

[4] = tested on: S. maltophilia VUN 10,010; test: Degradation of single high molecular weight PAHs by high initial populations of VUN 10,010 with surfactant; format: cell-based, Stenotrophomonas maltophilia
Method: […] Incubations contained a single PAH in BSM at 30° C. The PAH remaining was calculated as a percentage relative to the PAH recovered from the […]. Averages for the test cultures are from triplicate experiments.
Tergitol NP-10 (5 and 10 g l^−1) was added to BSM broths each containing a single high molecular weight PAH.

[5] = tested on: S. maltophilia VUN 10,010; test: Degradation of a PAH mixture by VUN 10,010 with surfactant, low initial cell population; format: cell-based, Stenotrophomonas maltophilia; conditions: for Maximum Specific Degradation Rate: — = not appreciable
Method: The incubations were conducted in BSM at 30° C., using low initial cell populations. The PAH remaining was calculated as a percentage relative to the PAH recovered from the uninoculated control. Averages for the test cultures are from triplicate experiments.
A low initial cell population of around 9×10^3 cells ml^−1 was used.

[6] = Surfactant critical micelle concentration, duNouy ring tensitometer; format: physicochemical; conditions: for CMC in BSM compared with deionized (distilled) water: 30° C.; for CMC: in BSM
Method: Experiments to evaluate surfactant CMC values were conducted at 30° C. using a duNouy ring tensitometer (Cambridge Instrument Company Limited, London, England). All glassware was cleaned with chromic acid solution, and the tensitometer ring was cleaned with acetone and heated to redness in a gas flame. Various concentrations of surfactant solutions were prepared in deionized water and BSM. Surfactant solutions were allowed to equilibrate for approximately 2 h before measurements were made. Measurements were an average of five readings (SD<0.3%). CMC value was taken from the plot of surface tension versus log surfactant concentration, as described by Kile and Chiou (1989).

[7] = tested on: S. maltophilia VUN 10,010; test: Pyrene degradation and growth of VUN 10,010 in the presence of surfactants; format: cell-based, Stenotrophomonas maltophilia; conditions: for effect on growth of VUN 10,010 on pyrene (protein analysis, MPN): surfactant 5-10 g l^−1; for effect on pyrene degradation by VUN 10,010: surfactant 5-10 g l^−1 (up to 10 g l^−1)
Method: Each surfactant was added to the medium to achieve the following concentrations: 0.5 g l^−1 (▴), 5.0 g l^−1 (●) and 10.0 g l^−1 (▪). The control cultures ( ) contained no added surfactant. The incubations were performed in BSM at 30° C., using low initial cell populations.
Growth was monitored by measuring protein concentration and viable cell numbers at regular intervals up to 10 days. Viable cell numbers were determined by most probable number (MPN) estimates (Collin et al, 1989).
Three types of controls were used: cultures containing no surfactant, uninoculated broth, and killed cell cultures (0.2% HgCl2). All cultures were incubated at 30° C./175 rpm. Bacterial growth was determined by MPN estimates.

[8] = data from the manufacturers; cited from earlier work
[9] = Ghosh et al (1995); medium and temperature not specified; cited from earlier work
[10] = BSM + PYR (pyrene 250 mg l^−1), 28 day samples
[11] = Tergitol NP-10 5 g l^−1, Single PAH
[12] = Tergitol NP-10 10 g l^−1, Single PAH
[13] = Tergitol NP-10 5 g l^−1, Mixed PAH

CCCCCCCCCCCCCCCC[N+](C)(C)C.[Br-] [CTAB]
inhibitory concentration in well diffusion toxicity test (strain VUN 10,010; peptone-glucose agar, 30° C.): 0.01 to 0.05 g/L

c1ccc2c(c1)ccc1cc3c(ccc4ccccc43)cc12 [Dibenz[a,h]anthracene, dibenz[a,h]anthracene]
PAH removal (%) [1, 10]: 13.8 + 0.9% | PAH removal (%) ([1]; BSM, 56 day samples): 5.9 ± 0.5% | PAH removal (%) (VUN 10,010; [10]): 26.7 + 0.7% | PAH removal (%) (VUN 10,010; BSM, 56 day samples): 7.8 ± 0.6% | PAH removal (%) ([2]; BSM, 56 day samples): 12.9 ± 0.3% | PAH removal (%) ([2]; BSM^g, 28 day samples): 24.4 ± 2.7% | PAH removal (%) ([2]; MYPD, 28 day samples): 36.7 ± 1.7% | concentration in the aqueous phase ([3]; at surfactant CMC, gas chromatograph): below the detection limit | Maximum Specific Degradation Rate ([4]; Brij 35 5 g l^−1, Single PAH): 6.26 mg PAH degraded mg^−1 protein day^−1 | percentage change in maximum specific degradation rate due to surfactant addition ([4]; Brij 35 5 g l^−1, Single PAH): +50% | Maximum Specific Degradation Rate ([4]; Brij 35 10 g l^−1, Single PAH): 7.20 mg PAH degraded mg^−1 protein day^−1 | percentage change in maximum specific degradation rate due to surfactant addition ([4]; Brij 35 10 g l^−1, Single PAH): +73% | Maximum Specific Degradation Rate ([4]; No Surfactant, Single PAH): 4.17 mg PAH degraded mg^−1 protein day^−1 | Maximum Specific Degradation Rate [4, 11]: 7.32 mg PAH degraded mg^−1 protein day^−1 | percentage change in maximum specific degradation rate due to surfactant addition [4, 11]: +76% | Maximum Specific Degradation Rate [4, 12]: 8.74 mg PAH degraded mg^−1 protein day^−1 | percentage change in maximum specific degradation rate due to surfactant addition [4, 12]: 110% | Maximum Specific Degradation Rate ([5]; No Surfactant, Mixed PAH): 1.20 mg PAH degraded mg^−1 protein day^−1 | percentage change in maximum specific degradation rate due to surfactant addition [5, 13]: +140% | Maximum Specific Degradation Rate [5, 13]: 2.89 mg PAH degraded mg^−1 protein day^−1

CCCCCCCCCCCCOS(=O)(=O)[O-].[Na+] [SDS]
MIC (strain VUN 10,010; peptone-glucose agar, 30° C.): 200 µg/mL

Igepal CA-630
effect on microbial growth (strain VUN 10,010; concentrations of 5 and 10 g l^−1): some inhibition | CMC in BSM compared with deionized (distilled) water [6]: higher CMC values in BSM | CMC [6]: 0.1078 mM | MSR (molar solubilization ratio), PYR [3]: 0.0326 | log Km (micelle-phase/aqueous-phase partition coefficient), PYR [3]: 5.39 | effect on growth of VUN 10,010 on pyrene (protein analysis, MPN) [7]: inhibited | effect on pyrene degradation by VUN 10,010 [7]: inhibited pyrene degradation; also recorded: inhibitory to pyrene degradation | HLB (hydrophile-lipophile balance number) [8]: 13.0

Triton X-100
CMC in BSM compared with deionized (distilled) water [6]: higher CMC values in distilled water | CMC [6]: 0.2320 mM | MSR (molar solubilization ratio), BAP [3]: 0.0113 | MSR (molar solubilization ratio), FA [3]: 0.0508 | MSR (molar solubilization ratio), PYR [3]: 0.0352 | log Km (micelle-phase/aqueous-phase partition coefficient), BAP [3]: 7.49 | log Km (micelle-phase/aqueous-phase partition coefficient), FA [3]: 5.64 | log Km (micelle-phase/aqueous-phase partition coefficient), PYR [3]: 5.84 | effect on pyrene degradation by VUN 10,010 [7]: enhanced | HLB (hydrophile-lipophile balance number) [8]: 13.5 | MSR for benzo[a]pyrene [9]: 1.5×10^−2

Tyloxapol
CMC in BSM compared with deionized (distilled) water [6]: higher CMC values in distilled water | CMC [6]: 0.0167 mM | MSR (molar solubilization ratio), PYR [3]: 0.0820 | log Km (micelle-phase/aqueous-phase partition coefficient), PYR [3]: 6.60 | effect on growth of VUN 10,010 on pyrene (protein analysis, MPN) [7]: significantly improved | effect on pyrene degradation by VUN 10,010 [7]: enhanced | reduction of time required for VUN 10,010 to degrade 250 mg l^−1 of pyrene ([7]; surfactant 5-10 g l^−1, presolubilized pyrene): 50% | HLB (hydrophile-lipophile balance number) [8]: 12.9
